30 compounds from US10092575B2, “Substituted thiophene- and furan-fused azolopyrimidine-5-(6H)-one compounds” (DART NEUROSCIENCE (CAYMAN) LTD., priority 2012, dated 2018) can be followed below.

A word on the EC50: it is the midpoint of the concentration-response curve. Low readings indicate greater potency, high ones weaker potency.

In this test the target is human PDE1b enzyme (Homo sapiens (Human), UniProt Q01064). As to the kind of experiment: PDE1b inhibitory assay (IMAP TR-FRET). The conditions noted are these: for PDE1b (pEC50): negative log of half-maximal molar inhibitory concentration, 200 nM FAM-cAMP, reported as ranges.

Protocol: PDE1b inhibition was determined by an IMAP TR-FRET assay. The IMAP TR-FRET PDE assay was optimized for concentration of enzyme, Calmodulin, cAMP or cGMP substrate, DMSO tolerance, and incubation time.
After a brief centrifugation, the plates were incubated for 30 minutes at room temperature. The assay was terminated by adding 5 μL IMAP binding reagent/Tb complex (Molecular Devices, Sunnyvale, Calif.) to each well.
Plates were incubated 1 hour at room temperature and read on a Viewlux multimode plate reader (Perkin Elmer). The instrument was set to excite using the DUG11 filter and measure using 490/10 nm and 520/10 nm filters. Ratios of acceptor and donor were then calculated.
For EC50 calculations, the values of % efficacy versus a series of compound concentrations were then plotted using non-linear regression analysis of sigmoidal dose-response curves generated with the equation Y=B+(T−B)/1+10((Log EC50−X)×Hill Slope), where Y=percent activity, B=minimum percent efficacy, T=maximum percent efficacy, X=logarithm of compound and Hill Slope=slope factor or Hill coefficient. The EC50 value was determined by the concentration causing a half-maximal percent efficacy.

As for `O=C(c1cnccn1)N1CCc2c(sc3c2c2ncnn2c(=O)n3Cc2ccc(Cl)cc2)C1` [Example 157, 6-(4-Chlorobenzyl)-9-(pyrazine-2-carbonyl)-8,9,10,11-tetrahydropyrido[4′,3′:4,5]thieno[3,2-e][1,2,4]triazolo[1,5-c]pyrimidin-5(6H)-one], the “PDE1b (pEC50)” value is listed as above 7.

On to `COc1ccc(Cn2c(=O)n3ncnc3c3c4c(sc32)CN(C(=O)C2CC2)CC4)cc1` [Example 159, 9-(Cyclopropanecarbonyl)-6-(4-methoxybenzyl)-8,9,10,11-tetrahydropyrido[4′,3′:4,5]thieno[3,2-e][1,2,4]triazolo[1,5-c]pyrimidin-5(6H)-one], for which the “PDE1b (pEC50)” value is above 7.

`COc1ccc(Cn2c(=O)n3ncnc3c3c4c(sc32)CN(S(C)(=O)=O)CC4)cc1` [Example 162, 6-(4-Methoxybenzyl)-9-(methylsulfonyl)-8,9,10,11-tetrahydropyrido[4′,3′:4,5]thieno[3,2-e][1,2,4]triazolo[1,5-c]pyrimidin-5(6H)-one]: the “PDE1b (pEC50)” value is listed as above 7.

For `COc1ccc(Cn2c(=O)n3ncnc3c3c4c(sc32)CN(C(=O)C2CCN(C)C2)CC4)cc1` (stereo not drawn) [Example 163, 6-(4-Methoxybenzyl)-9-(1-methylpyrrolidine-3-carbonyl)-8,9,10,11-tetrahydropyrido[4′,3′:4,5]thieno[3,2-e][1,2,4]triazolo[1,5-c]pyrimidin-5(6H)-one], the concentration for a half-maximal effect (EC50) fell in the range of 0.1 to 1 µM.

Regarding `O=C(C1CC1)N1CCc2c(sc3c2c2ncnn2c(=O)n3Cc2ccc(Cl)cc2F)C1` [Example 164, 6-(4-Chloro-2-fluorobenzyl)-9-(cyclopropanecarbonyl)-8,9,10,11-tetrahydropyrido[4′,3′:4,5]thieno[3,2-e][1,2,4]triazolo[1,5-c]pyrimidin-5(6H)-one], the “PDE1b (pEC50)” value is above 7.

Consider `COc1ccc(Cn2c(=O)n3ncnc3c3c4c(sc32)CN(C(=O)C2CCOC2)CC4(F)F)cc1` (stereo not drawn) [Example 166, 11,11-Difluoro-6-(4-methoxybenzyl)-9-(tetrahydrofuran-3-carbonyl)-8,9,10,11-tetrahydropyrido[4′,3′:4,5]thieno[3,2-e][1,2,4]triazolo[1,5-c]pyrimidin-5 (6H)-one], for which the “PDE1b (pEC50)” value is above 7.

Regarding `COc1ccc(Cn2c(=O)n3ncnc3c3c4c(sc32)CN(C(=O)C2CCOC2)CC4)c(F)c1` (stereo not drawn) [Example 167, 6-(2-Fluoro-4-methoxybenzyl)-9-(tetrahydrofuran-3-carbonyl)-8,9,10,11-tetrahydropyrido[4′,3′:4,5]thieno[3,2-e][1,2,4]triazolo[1,5-c]pyrimidin-5(6H)-one], the “PDE1b (pEC50)” value is above 7.

With `COc1ccc(Cn2c(=O)n3ncnc3c3c4c(sc32)CN(C(=O)C2CC2)CC4)c(F)c1` [Example 168, 9-(Cyclopropanecarbonyl)-6-(2-fluoro-4-methoxybenzyl)-8,9,10,11-tetrahydropyrido[4′,3′:4,5]thieno[3,2-e][1,2,4]triazolo[1,5-c]pyrimidin-5(6H)-one], the “PDE1b (pEC50)” value is recorded as above 7.

Take `COc1ccc(Cn2c(=O)n3ncnc3c3c4c(sc32)CN(C(=O)[C@@H]2CCOC2)CC4)cc1` [Example 169, (R)-6-(4-Methoxybenzyl)-9-(tetrahydrofuran-3-carbonyl)-8,9,10,11-tetrahydropyrido[4′,3′:4,5]thieno[3,2-e][1,2,4]triazolo[1,5-c]pyrimidin-5(6H)-one]: the “PDE1b (pEC50)” value is reported as above 7.

With `COc1ccc(Cn2c(=O)n3ncnc3c3c4c(sc32)CN(C(=O)C2CCOC2)CC4)cc1` (stereo not drawn) [Example 170, 6-(4-Methoxybenzyl)-9-(tetrahydrofuran-3-carbonyl)-8,9,10,11-tetrahydropyrido[4′,3′:4,5]thieno[3,2-e][1,2,4]triazolo[1,5-c]pyrimidin-5(6H)-one], the “PDE1b (pEC50)” value is recorded as above 7.

Take `COc1ccc(Cn2c(=O)n3ncnc3c3c4c(sc32)N(C(=O)C2CC2)CCC4)cc1` [Example 174, 8-(Cyclopropanecarbonyl)-6-(4-methoxybenzyl)-8,9,10,11-tetrahydropyrido[3′,2′:4,5]thieno[3,2-e][1,2,4]triazolo[1,5-c]pyrimidin-5(6H)-one]: the “PDE1b (pEC50)” value is above 7.

`COc1ccc(Cn2c(=O)n3ncnc3c3c4c(sc32)N(C(=O)C2CCOC2)CCC4)cc1` (stereo not drawn) [Example 175, 6-(4-Methoxybenzyl)-8-(tetrahydrofuran-3-carbonyl)-8,9,10,11-tetrahydropyrido[3′,2′:4,5]thieno[3,2-e][1,2,4]triazolo[1,5-c]pyrimidin-5(6H)-one]: the “PDE1b (pEC50)” value is recorded as above 7.

Regarding `COc1ccc(Cn2c(=O)n3ncnc3c3c4c(sc32)N(C(=O)c2ccccc2)CCC4)cc1OC` [Example 176, 8-Benzoyl-6-(3,4-dimethoxybenzyl)-8,9,10,11-tetrahydropyrido[3′,2′:4,5]thieno[3,2-e][1,2,4]triazolo[1,5-c]pyrimidin-5(6H)-one], the 50% effective concentration (EC50) was 1 to 10 µM.

On to `COc1ccc(Cn2c(=O)n3ncnc3c3c4c(sc32)CN(c2ccccn2)CC4)cc1` [Example 179, 6-(4-Methoxybenzyl)-9-(pyridin-2-yl)-8,9,10,11-tetrahydropyrido[4′,3′:4,5]thieno[3,2-e][1,2,4]triazolo[1,5-c]pyrimidin-5(6H)-one], for which the “PDE1b (pEC50)” value was above 7.

For the compound `COc1ccc(Cn2c(=O)n3ncnc3c3c4c(sc32)CN(CC2CNCCO2)CC4)cc1` (stereo not drawn) [Example 180, 6-(4-Methoxybenzyl)-9-(morpholin-2-ylmethyl)-8,9,10,11-tetrahydropyrido[4′,3′:4,5]thieno[3,2-e][1,2,4]triazolo[1,5-c]pyrimidin-5(6H)-one], the 50% effective concentration (EC50) is 0.1 to 1 µM.

`COc1ccc(Cn2c(=O)n3ncnc3c3c4c(sc32)CN(C(=O)C2CCNC2)CC4)cc1` (stereo not drawn) [Example 181, 6-(4-Methoxybenzyl)-9-(pyrrolidine-3-carbonyl)-8,9,10,11-tetrahydropyrido[4′,3′:4,5]thieno[3,2-e][1,2,4]triazolo[1,5-c]pyrimidin-5(6H)-one] showed an EC50 of 0.1 to 1 µM.

Consider `COc1ccc(Cn2c(=O)n3ncnc3c3c4c(sc32)CN(CC2CCNCC2)CC4)cc1` [Example 182, 6-(4-Methoxybenzyl)-9-(piperidin-4-ylmethyl)-8,9,10,11-tetrahydropyrido[4′,3′:4,5]thieno[3,2-e][1,2,4]triazolo[1,5-c]pyrimidin-5(6H)-one], for which the EC50 fell in the range of 0.1 to 1 µM.

`COc1ccc(Cn2c(=O)n3ncnc3c3c4c(sc32)CNCC4)cc1` [Example 183, 6-(4-Methoxybenzyl)-8,9,10,11-tetrahydropyrido[4′,3′:4,5]thieno[3,2-e][1,2,4]triazolo[1,5-c]pyrimidin-5(6H)-one]: the EC50 lay in the range of 0.1 to 1 µM.

Take `COc1ccc(Cn2c(=O)n3ncnc3c3c4c(sc32)CCNC4)cc1` [Example 184, 6-(4-Methoxybenzyl)-8,9,10,11-tetrahydropyrido[3′,4′:4,5]thieno[3,2-e][1,2,4]triazolo[1,5-c]pyrimidin-5(6H)-one]: the EC50 was 0.1 to 1 µM.

Consider `COc1ccc(Cn2c(=O)n3ncnc3c3cc(CN4CCC(Oc5ccncc5)CC4)sc32)cc1` [Example 185, 6-(4-Methoxybenzyl)-8-((4-(pyridin-4-yloxy)piperidin-1-yl)methyl)thieno[3,2-e][1,2,4]triazolo[1,5-c]pyrimidin-5(6H)-one], for which the EC50 was 0.1 to 1 µM.

Turning to `COc1ccc(Cn2c(=O)n3ncnc3c3cc(CN4CCN(c5ccccc5F)CC4)sc32)cc1` [Example 186, 8-((4-(2-Fluorophenyl)piperazin-1-yl)methyl)-6-(4-methoxybenzyl)thieno[3,2-e][1,2,4]triazolo[1,5-c]pyrimidin-5(6H)-one], the “PDE1b (pEC50)” value is listed as above 7.

Regarding `COc1ccc(Cn2c(=O)n3ncnc3c3cc(CN4CCN(c5cccc(F)c5)CC4)sc32)cc1` [Example 187, 8-((4-(3-Fluorophenyl)piperazin-1-yl)methyl)-6-(4-methoxybenzyl)thieno[3,2-e][1,2,4]triazolo[1,5-c]pyrimidin-5(6H)-one], the “PDE1b (pEC50)” value is listed as above 7.

`COc1ccc(Cn2c(=O)n3ncnc3c3cc(CN4CCN(c5ccc(F)cc5)CC4)sc32)cc1` [Example 188, 8-((4-(4-Fluorophenyl)piperazin-1-yl)methyl)-6-(4-methoxybenzyl)thieno[3,2-e][1,2,4]triazolo[1,5-c]pyrimidin-5(6H)-one] yielded an EC50 of 0.1 to 1 µM.

For `COc1ccc(Cn2c(=O)n3ncnc3c3c(CN4CCC(Oc5ccccc5)C4)csc32)cc1` (stereo not drawn) [Example 189, 6-(4-Methoxybenzyl)-9-((3-phenoxypyrrolidin-1-yl)methyl)thieno[3,2-e][1,2,4]triazolo[1,5-c]pyrimidin-5(6H)-one], the “PDE1b (pEC50)” value is listed as above 7.

On to `COc1ccc(Cn2c(=O)n3ncnc3c3cc(CN4CC(Oc5ccccc5F)C4)sc32)cc1` [Example 190, 8-((3-(2-Fluorophenoxy)azetidin-1-yl)methyl)-6-(4-methoxybenzyl)thieno[3,2-e][1,2,4]triazolo[1,5-c]pyrimidin-5(6H)-one], for which the EC50 lay in the range of 1 to 10 µM.

On to `COc1ccc(Cn2c(=O)n3ncnc3c3cc(CN4CCC(N5CCOCC5)CC4)sc32)cc1` [Example 191], for which the “PDE1b (pEC50)” value is given as above 7.

Regarding `COc1ccc(Cn2c(=O)n3ncnc3c3cc(CN4CCC5(C4)CC5(F)F)sc32)cc1` (stereo not drawn) [Example 192, 8-((1,1-Difluoro-5-azaspiro[2.4]heptan-5-yl)methyl)-6-(4-methoxybenzyl)thieno[3,2-e][1,2,4]triazolo[1,5-c]pyrimidin-5(6H)-one], the EC50 fell in the range of 0.1 to 1 µM.

Regarding `COc1ccc(Cn2c(=O)n3ncnc3c3cc(CN4CCCN(C(C)=O)CC4)sc32)cc1` [Example 193, 8-((4-Acetyl-1,4-diazepan-1-yl)methyl)-6-(4-methoxybenzyl)thieno[3,2-e][1,2,4]triazolo[1,5-c]pyrimidin-5(6H)-one], the “PDE1b (pEC50)” value was above 7.

On to `COc1ccc(Cn2c(=O)n3ncnc3c3cc(CN4CCCOCC4)sc32)c(F)c1F` [Example 194, 8-((1,4-Oxazepan-4-yl)methyl)-6-(2,3-difluoro-4-methoxybenzyl)thieno[3,2-e][1,2,4]triazolo[1,5-c]pyrimidin-5(6H)-one], for which the “PDE1b (pEC50)” value was above 7.

Regarding `COc1ccc(Cn2c(=O)n3ncnc3c3c(CN4CCCC(CO)(CC(C)C)C4)csc32)cc1` (stereo not drawn) [Example 195, 9-((3-(Hydroxymethyl)-3-isobutylpiperidin-1-yl)methyl)-6-(4-methoxybenzyl)thieno[3,2-e][1,2,4]triazolo[1,5-c]pyrimidin-5(6H)-one], the EC50 was 0.1 to 1 µM.
